Patent US10875857B2, “1-amino-triazolo(1,5-A)pyridine-substituted urea derivative and uses thereof” (Kala Pharmaceuticals, Inc., priority 2014, dated 2020)

What was measured:
VEGFR2 = target: T1, VEGFR2 (Homo sapiens, UniProt P35968); experiment: Cellular VEGFR2 tyrosine auto-phosphorylation assay in HUE cells after VEGF-A stimulation (sandwich ELISA); assay type: cell-based; conditions: 90 min incubation with compound, then 3 min stimulation with 100 ng/ml VEGF-A, phosphorylated VEGFR2 by ELISA, read-out: cellular 1050 values, VEGFR2
T1 construct: The human umbilical endothelial (HUE) cell line expresses high levels of VEGFR2; endogenous in cells; host or cells: HUE (human umbilical endothelial) cell line
Description: The human umbilical endothelial (HUE) cell line expresses high levels of VEGFR2. The compound prepared in Example 2 above, 1-(4-(3-amino-[1,2,3]triazolo[1,5-a]pyridin-4-yl)phenyl)-3-(3-chlorophenyl)urea, was tested for the ability to inhibit tyrosine auto-phosphorylation of this receptor after stimulation with vascular endothelial growth factor A (VEGF-A). HUE cells were plated into multi-well cell culture plates in endothelial cell growth medium (ECGM) supplemented with 10% fetal calf serum (FCS). After starvation in endothelial cell basal medium (ECBM) supplemented with […] overnight cells were incubated with compounds in serum-free ECBM. […] Cells were incubated for 90 min at 37° C. in ECBM with the serial diluted compound and then stimulated for 3 min with 100 ng/ml VEGF-A. Cells were lysed, and then levels of phosphorylated VEGFR2 were determined in a sandwich ELISA assay formatted in a multi-well plate using a VEGFR2 specific capture antibody and an anti-phosphotyrosine VEGFR2 detection antibody. […] IC50 values were determined by fitting the converted eight point dose response data to a four-parameter logistic equation using GRAPHPAD PRISM® 5.01 software.

PDGFR-β = target: T2, PDGFR-β (Mus musculus, UniProt P05622); experiment: Cellular PDGFR-β tyrosine auto-phosphorylation assay in NIH3T3 cells after PDGF-BB stimulation (sandwich ELISA); assay type: cell-based, murine; conditions: 90 min incubation with compound, then 3 min stimulation with 100 ng/ml PDGF-BB, phosphorylated PDGFR-β by ELISA, read-out: cellular 1050 values, PDGFR-β
T2 construct: The murine embryonal fibroblast cell line NIH3T3 expresses endogenously high levels of PDGFR-β; endogenous in cells; host or cells: NIH3T3 murine embryonal fibroblast cell line
Description: The murine embryonal fibroblast cell line NIH3T3 expresses endogenously high levels of PDGFR-β. The compound prepared in Example 2 above was tested for the ability to inhibit tyrosine auto-phosphorylation of this receptor after stimulation with platelet-derived growth factor BB (PDGF-BB). The NIH3T3 cells were plated into multi-well cell culture plates in Dulbecco's Modified Eagle Medium (DMEM) supplemented with 10% FCS. The medium was removed and then replaced with DMEM without FCS and cells serum starved overnight at 37° C. On the day of the assay the compound was 1:3 serial diluted from 10 mM stocks in 100% DMSO and then were 1:100 diluted to each well of cells in DMEM without FCS to create final solutions containing 1% DMSO and an eight point compound dose response curve starting at 10^−6 M, 10^−7 M, or 10^−8 M. The compound was added in duplicate to columns of the multi-well plate. […] Cells were lysed, and then levels of phosphorylated PDGFR-β were determined in a sandwich ELISA assay formatted in a multi-well plate using a PDGFR-β specific capture antibody and an anti-phosphotyrosine PDGFR-β detection antibody. […] IC50 values were determined by fitting the converted eight point dose response data to a four-parameter logistic equation using GRAPHPAD PRISM® 5.01 software.

T2 sequence (P05622 32-1098): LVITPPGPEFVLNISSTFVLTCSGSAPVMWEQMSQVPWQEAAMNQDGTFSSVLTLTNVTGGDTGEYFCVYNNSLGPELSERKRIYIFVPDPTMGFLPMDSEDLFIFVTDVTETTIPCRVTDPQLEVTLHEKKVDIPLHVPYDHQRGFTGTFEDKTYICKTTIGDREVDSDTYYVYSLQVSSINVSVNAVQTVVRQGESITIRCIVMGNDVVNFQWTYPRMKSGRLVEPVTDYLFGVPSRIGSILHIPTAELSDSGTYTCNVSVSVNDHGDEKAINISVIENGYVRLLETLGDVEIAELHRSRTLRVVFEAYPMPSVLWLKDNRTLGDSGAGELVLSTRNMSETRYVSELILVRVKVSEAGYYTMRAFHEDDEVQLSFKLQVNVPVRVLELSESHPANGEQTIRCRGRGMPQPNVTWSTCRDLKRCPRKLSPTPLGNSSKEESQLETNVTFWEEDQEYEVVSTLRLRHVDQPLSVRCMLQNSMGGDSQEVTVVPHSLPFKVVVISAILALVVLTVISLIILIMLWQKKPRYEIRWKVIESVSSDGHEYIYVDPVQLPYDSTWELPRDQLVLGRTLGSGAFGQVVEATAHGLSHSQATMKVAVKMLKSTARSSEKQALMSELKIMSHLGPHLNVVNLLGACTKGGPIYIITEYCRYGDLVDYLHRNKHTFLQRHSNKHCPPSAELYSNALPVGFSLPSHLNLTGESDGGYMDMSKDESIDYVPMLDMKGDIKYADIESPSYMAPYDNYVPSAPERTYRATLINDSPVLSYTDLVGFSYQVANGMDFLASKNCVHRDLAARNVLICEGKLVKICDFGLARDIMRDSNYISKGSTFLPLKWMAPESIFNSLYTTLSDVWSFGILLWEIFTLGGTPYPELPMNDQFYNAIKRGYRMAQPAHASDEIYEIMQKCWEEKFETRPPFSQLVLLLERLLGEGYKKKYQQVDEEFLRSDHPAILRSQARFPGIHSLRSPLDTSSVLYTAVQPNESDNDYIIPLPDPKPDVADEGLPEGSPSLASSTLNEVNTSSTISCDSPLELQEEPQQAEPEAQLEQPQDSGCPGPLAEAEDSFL
T1 sequence (P35968 20-1356): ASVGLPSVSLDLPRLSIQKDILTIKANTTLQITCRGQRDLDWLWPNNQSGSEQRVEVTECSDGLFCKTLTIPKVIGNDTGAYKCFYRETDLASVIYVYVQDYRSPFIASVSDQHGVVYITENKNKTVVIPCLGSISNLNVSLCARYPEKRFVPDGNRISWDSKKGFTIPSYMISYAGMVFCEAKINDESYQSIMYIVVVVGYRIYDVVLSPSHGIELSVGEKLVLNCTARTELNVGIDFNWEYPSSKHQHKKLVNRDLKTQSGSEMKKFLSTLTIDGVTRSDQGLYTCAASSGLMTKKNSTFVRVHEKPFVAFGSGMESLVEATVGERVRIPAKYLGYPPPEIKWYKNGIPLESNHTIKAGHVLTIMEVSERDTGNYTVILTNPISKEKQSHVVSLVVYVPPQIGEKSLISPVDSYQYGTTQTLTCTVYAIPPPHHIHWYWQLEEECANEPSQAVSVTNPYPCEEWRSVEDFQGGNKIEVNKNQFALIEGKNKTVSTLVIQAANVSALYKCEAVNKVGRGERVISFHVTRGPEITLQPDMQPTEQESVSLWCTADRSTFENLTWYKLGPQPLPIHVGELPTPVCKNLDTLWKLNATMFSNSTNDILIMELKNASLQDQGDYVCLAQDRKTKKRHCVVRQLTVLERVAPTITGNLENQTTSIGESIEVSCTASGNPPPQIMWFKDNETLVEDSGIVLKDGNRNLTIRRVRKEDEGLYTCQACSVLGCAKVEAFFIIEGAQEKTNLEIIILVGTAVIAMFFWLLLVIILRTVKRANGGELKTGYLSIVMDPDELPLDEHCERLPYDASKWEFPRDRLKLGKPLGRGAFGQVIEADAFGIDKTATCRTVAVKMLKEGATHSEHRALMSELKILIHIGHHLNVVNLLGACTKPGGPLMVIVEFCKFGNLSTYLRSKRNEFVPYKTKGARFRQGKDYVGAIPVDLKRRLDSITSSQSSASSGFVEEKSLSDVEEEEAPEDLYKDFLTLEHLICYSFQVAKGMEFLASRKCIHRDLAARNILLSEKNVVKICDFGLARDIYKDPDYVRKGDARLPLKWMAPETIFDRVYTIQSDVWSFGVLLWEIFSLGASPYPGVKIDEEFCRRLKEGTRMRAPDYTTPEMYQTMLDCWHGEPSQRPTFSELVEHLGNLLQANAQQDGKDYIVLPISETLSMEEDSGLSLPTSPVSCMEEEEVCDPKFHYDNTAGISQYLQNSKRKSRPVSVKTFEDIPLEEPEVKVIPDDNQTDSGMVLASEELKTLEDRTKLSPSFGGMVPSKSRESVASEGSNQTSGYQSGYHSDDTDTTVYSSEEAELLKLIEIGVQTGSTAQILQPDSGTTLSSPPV

## Nc1nnn2cccc(-c3ccc(NC(=O)Nc4cccc(Cl)c4)cc3)c12 [compound of Formula (I), 1-(4-(3-amino-[1,2,3]triazolo[1,5-a]pyridin-4-yl)phenyl)-3-(3-chlorophenyl)urea]
VEGFR2
  IC50: 0.37 nM
PDGFR-β
  IC50: 3.2 nM
